Assay: Concentration of saturated solution of racemic HCl salt in EtOH, determined by HPLC
Type: physicochemical
Protocol: A saturated solution of racemic HCl salt is prepared by heating 50 g of salt in EtOH (350 ml) to reflux. A clear solution is formed. This is allowed to cool to 40° C. The mixture is seeded with a slurry of racemic HCl salt.
Crystallization is observed. This is allowed to equilibrate overnight. The mixture is filtered into the reaction vessel (preheated to 40° C.). This is heated to 60° C. to ensure complete dissolution, cooled to 40° C. and sampled to determine the concentration by HPLC. This is then cooled to 13° C. in increments of 1° C./5 min. At 13° C. a small amount of crystallisation is observed. A seed sample is also added and this is allowed to equilibrate overnight. A sample is removed for concentration determination at 13° C.

- Concentration of sat. solution at 40° C. (equilibrated at 40° C.): 92200 µg/mL
- Concentration at 13° C. (equilibrated overnight at 13° C.): 69740 µg/mL
SMILES: CC1N=C(N)NC(N(C)C)=N1 (racemic) [A1, 2-amino-3,6-dihydro-4-dimethylamino-6-methyl-1,3,5-triazine]

Reference: patent US8742102B2, “Process for enantiomeric separation of racemic dihydro-1,3,5 triazines via preferential crystallization” (Poxel, priority 2009, dated 2014)
